Results on 24 molecules are retold here after US11179399B2, “6-heterocyclyl-4-morpholin-4-ylpyridine-2-one compounds useful for the treatment of cancer and diabetes” (Sprint Bioscience AB, priority 2016, dated 2021).

Like-named read-outs stand apart in the source and are kept apart here.

In test [1] the target is Vps34 enzyme (Homo sapiens (Human), UniProt Q8NEB9). Description: Vps34 biochemical assay (Adapta kinase assay). The note with it: 20 μM ATP and 200 μM PI:PS in substrate mix, 1 h at room temperature, read-out: Median IC50 uM Adapta. As for the experimental part:
Dilution series of compounds of the invention were prepared in DMSO at 100 times the final assay concentration (n1=n0/3 in 10 points). The compounds were further diluted to 4 times the assay concentration in assay buffer (Life technologies buffer Q, PV5125, diluted 5 times supplemented with 2 mM DTT and 2 mM MnCl2). 2.5 μl of the diluted compounds were added to a 384 well assay plate followed by 2.5 μl of 16.5 nM Vps34 enzyme (Life technologies, PV5126). Enzyme and compounds were pre-incubated at rt for 15 min. Then 5 μl of substrate mix containing 20 μM ATP (Life technologies, PV3227) and 200 μM PI:PS substrate (Life technologies, PV5122) in assay buffer was added to the wells containing compound and enzyme. Mixing was performed by pipetting several times. The reaction was incubated at room temperature for 1 h. Then 5 μl stop-detection mix, prepared as described in the Adapta kinase assay kit instructions (Life technologies, PV5099) containing Adapta Eu-anti-ADP antibody (2.3 nM), Alexa Fluor 647 ADP tracer (9 nM) and EDTA (30 mM) in TR-FRET buffer, was added to quench the reaction. Mixing was performed by pipetting several times. The assay plate was then incubated at room temperature for 30 min and read with Artemis micro plate reader. Percent inhibition of the compounds as compared to DMSO treated control samples was calculated. By the use of Dotmatics software compound concentration versus percent inhibition was fitted to generate IC50 values.

Test [2] has as its system autophagy in HOS cells (GFP-LC3). Description: High content screening autophagy assay (GFP-LC3 foci). The test is classed as cell-based, Human. The following applies: foci area per cell, read-out: Median IC50 (uM) Cellular assay. As for the experimental part: Human osteosarcoma cells (HOS) stably expressing a Green Fluorescent Protein (GFP) tagged LC3 (GFP-LC3) were used to determine the inhibitory effect on autophagy of proprietary compounds. For that purpose, autophagy was activated by using the mTOR inhibitor KU-0063794 at 500 nM in the presence of Bafilomycin A1 (Sigma-Aldrich) at 5 nM. Shortly, cells were plated overnight in clear bottom 96-well plates in DMEM-High Modified media (Hi-Clone Cat #SH30285.01). At the start of the experiment, the media was removed and replaced with fresh media containing the mTOR inhibitor, Bafilomycin A1 and the vehicle or a test compound as indicated. After 6 hours the media was removed, cells were washed twice with ice-cold phosphate buffered saline (PBS) and fixed with 4% paraformaldehyde for 20 minutes at room temperature. Then the cells were washed twice with ice-cold PBS before adding Hoechst 33342 at 1 μg/ml in PBS for nuclear staining. After incubation overnight at 4° C., cells were washed once with PBS to remove the excess of dye and 100 μl of PBS was added to each well. Images were acquired at 20× magnification, 6 images per well, using the ImageXpress automated microscope (Molecular Devices Inc.) and analyzed with MetaXpress software to identify LC3-GFP foci. Foci area per cell values were used to generate dose response curves and IC50 values were calculated using the non-linear fitting analysis in GraphPad Prism software.

Setting [3] is: Homo sapiens, HOS, 6 h, HOS cells with GFP-LC3, autophagy activated by KU-0063794 500 nM with Bafilomycin A1 5 nM.

Chain of Vps34 enzyme (Q8NEB9 whole entry): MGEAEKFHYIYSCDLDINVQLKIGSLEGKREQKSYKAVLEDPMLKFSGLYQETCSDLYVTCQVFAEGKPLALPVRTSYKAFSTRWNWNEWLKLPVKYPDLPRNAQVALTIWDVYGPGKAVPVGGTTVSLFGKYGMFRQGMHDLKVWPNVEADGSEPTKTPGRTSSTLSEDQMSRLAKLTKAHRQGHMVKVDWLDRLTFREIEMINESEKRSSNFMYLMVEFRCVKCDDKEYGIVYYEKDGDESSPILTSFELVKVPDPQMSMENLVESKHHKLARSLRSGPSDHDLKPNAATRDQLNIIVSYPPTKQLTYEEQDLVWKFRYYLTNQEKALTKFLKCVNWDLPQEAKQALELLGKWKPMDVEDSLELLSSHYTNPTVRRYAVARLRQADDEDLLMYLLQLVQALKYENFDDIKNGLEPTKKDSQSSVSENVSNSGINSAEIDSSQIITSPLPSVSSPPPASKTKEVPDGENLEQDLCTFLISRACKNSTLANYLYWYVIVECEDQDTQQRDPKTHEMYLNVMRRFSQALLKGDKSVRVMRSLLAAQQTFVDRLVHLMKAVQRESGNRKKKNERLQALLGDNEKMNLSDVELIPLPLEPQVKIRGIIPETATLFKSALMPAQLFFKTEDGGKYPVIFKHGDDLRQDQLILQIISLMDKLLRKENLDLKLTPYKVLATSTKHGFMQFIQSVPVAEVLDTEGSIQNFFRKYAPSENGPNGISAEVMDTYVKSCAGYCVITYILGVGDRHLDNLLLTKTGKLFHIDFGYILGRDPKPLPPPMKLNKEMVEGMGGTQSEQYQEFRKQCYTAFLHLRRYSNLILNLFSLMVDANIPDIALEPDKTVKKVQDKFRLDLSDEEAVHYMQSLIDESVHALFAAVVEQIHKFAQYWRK

The term IC50 denotes the concentration that inhibits the measured activity by half. As to `COc1cccc(C2CCCN2c2cc(N3CCOC[C@H]3C)cc(=O)[nH]2)c1` (single isomer, unassigned) [Example 17_2], the IC50 in test [1] was 0.006 µM; in test [2] (setting [3]), 0.3 µM.

In the case of `C[C@@H]1COCCN1c1cc(N2CCCC2c2ccccc2)[nH]c(=O)c1` (single isomer, unassigned) [Example 18_2], the IC50 in test [1] amounted to 0.02 µM; in test [2] (setting [3]), 1 µM.

`CC1COCCN1c1cc(N2CCOC[C@H]2C)cc(=O)[nH]1` (single isomer, unassigned) [Example 24_1]: the figures for the IC50 in test [1] and in test [2] (setting [3]) were 0.01 µM and 1.4 µM, respectively.

Consider `C[C@@H]1COCCN1c1cc(N2CCCCC2C(F)(F)F)[nH]c(=O)c1` (single isomer, unassigned) [Example 25_1], for which the IC50 in test [1] turned out to be 0.002 µM; in test [2] (setting [3]) it was 0.03 µM.

As to `C[C@@H]1COCCN1c1cc(N2CCOCC2c2ccccc2)[nH]c(=O)c1` (single isomer, unassigned) [Example 26_1], the IC50 in test [1] was 0.04 µM; in test [2] (setting [3]), 0.2 µM.

Consider `C[C@@H]1COCCN1c1cc(N2CCCC2c2cccc(Cl)c2)[nH]c(=O)c1` (single isomer, unassigned) [Example 36_1], for which the IC50 was 0.01 µM in test [1] and 0.4 µM in test [2] (setting [3]).

With `C[C@@H]1COCCN1c1cc(N2CCCC2c2cccc(Cl)c2)[nH]c(=O)c1` (single isomer, unassigned) [Example 36_2], the IC50 in test [1] was 0.02 µM; in test [2] (HOS cells with GFP-LC3, autophagy activated by KU-0063794 500 nM with Bafilomycin A1 5 nM, 6 hours), 0.7 µM.

For the molecule `C[C@@H]1COCCN1c1cc(N2CCOCC2C(F)(F)F)[nH]c(=O)c1` (single isomer, unassigned) [Example 43_1], the IC50 came to 0.003 µM in test [1] and 0.03 µM in test [2] (setting [3]).

With `COc1cccc(C2CCCCN2c2cc(N3CCOC[C@H]3C)cc(=O)[nH]2)c1` (single isomer, unassigned) [Example 44_1], the results for the IC50 in test [1] and in test [2] (setting [3]) were 0.001 µM and 0.2 µM, respectively.

On to `O=c1cc(N2CCOCC2)cc(N2CCCC2c2ccccc2)[nH]1` (stereo not drawn) [Example 1, 4-morpholino-6-(2-phenylpyrrolidin-1-yl)-1H-pyridin-2-one], for which the 50% inhibitory concentration (IC50) in test [1] amounted to 0.05 µM; in test [2] (setting [3]), 5 µM.

Turning to `O=c1cc(N2CCOCC2)cc(N2CCC[C@H]2c2ccccc2)[nH]1` [Example 3, 4-morpholino-6-[(2S)-2-phenylpyrrolidin-1-yl]-1H-pyridin-2-one], the IC50 in test [1] was 0.2 µM; in test [2] (setting [3]) it was 13 µM.

With `O=c1cc(N2CCOCC2)cc(N2CCC[C@@H]2c2ccccc2)[nH]1` [Example 4, 4-morpholino-6-[(2R)-2-phenylpyrrolidin-1-yl]-1H-pyridin-2-one], the results for the IC50 in test [1] and in test [2] (setting [3]) were 0.05 µM and 9 µM, respectively.

Turning to `CC1COCCN1c1cc(C2=CCOCC2)[nH]c(=O)c1` (stereo not drawn) [Example 5, 6-(3,6-dihydro-2H-pyran-4-yl)-4-(3-methylmorpholin-4-yl)-1H-pyridin-2-one], the half-inhibitory concentration (IC50) came out at 0.2 µM in test [1] and 15 µM in test [2] (setting [3]).

As for `CC1COCCN1c1cc(C2CCOCC2)[nH]c(=O)c1` (stereo not drawn) [Example 6, 4-(3-methylmorpholin-4-yl)-6-tetrahydropyran-4-yl-1H-pyridin-2-one], the IC50 came to 0.2 µM in test [1] and 5 µM in test [2] (setting [3]).

Consider `COc1cccc(C2CCCN2c2cc(N3CCOCC3C)cc(=O)[nH]2)c1` (stereo not drawn) [Example 7, 6-[2-(3-methoxyphenyl)pyrrolidin-1-yl]-4-(3-methylmorpholin-4-yl)-1H-pyridin-2-one], for which the IC50 in test [1] came to 0.004 µM; in test [2] (setting [3]) it was 0.5 µM.

On to `CC1COCCN1c1cc(N2CCCC2c2cccnc2)[nH]c(=O)c1` (stereo not drawn) [Example 8, 4-(3-methylmorpholin-4-yl)-6-[2-(3-pyridyl)pyrrolidin-1-yl]-1H-pyridin-2-one], for which the concentration for half-maximal inhibition (IC50) in test [1] was found to be 0.05 µM; in test [2] (setting [3]) it was 10 µM.

Turning to `CC1COCCN1c1cc(N2CCCC2c2ccccc2)[nH]c(=O)c1` (stereo not drawn) [Example 9, 4-(3-methylmorpholin-4-yl)-6-(2-phenylpyrrolidin-1-yl)-1H-pyridin-2-one], the IC50 in test [1] turned out to be 0.02 µM; in test [2] (setting [3]), 2 µM.

For the molecule `C[C@@H]1COCCN1c1cc(N2CCCC[C@@H]2c2ccccc2)[nH]c(=O)c1` [Example 30, 4-[(3R)-3-methylmorpholin-4-yl]-6-[(2R)-2-phenyl-1-piperidyl]-1H-pyridin-2-one], the IC50 amounted to 0.008 µM in test [1] and 0.6 µM in test [2] (setting [3]).

`C[C@@H]1COCCN1c1cc(N2CCOCC2C(F)(F)F)[nH]c(=O)c1` (stereo partly drawn) [Example 32, 4-[(3R)-3-methylmorpholin-4-yl]-6-[3-(trifluoromethyl)morpholin-4-yl]-1H-pyridin-2-one]: the results for the IC50 in test [1] and in test [2] (setting [3]) were 0.006 µM and 0.3 µM, respectively.

For `C[C@@H]1COCCN1c1cc(N2CCC[C@@H]2C(F)(F)F)[nH]c(=O)c1` [Example 35, 4-[(3R)-3-methylmorpholin-4-yl]-6-[(2R)-2-(trifluoromethyl)pyrrolidin-1-yl]-1H-pyridin-2-one], the half-inhibitory concentration (IC50) worked out at 0.009 µM in test [1] and 0.7 µM in test [2] (setting [3]).

On to `C[C@@H]1COCCN1c1cc(N2CCCC2c2cccc(C3CC3)c2)[nH]c(=O)c1` (stereo partly drawn) [Example 37, 6-[2-(3-cyclopropylphenyl)pyrrolidin-1-yl]-4-[(3R)-3-methylmorpholin-4-yl]-1H-pyridin-2-one], for which the results for the IC50 in test [1] and in test [2] (setting [3]) were 0.02 µM and 0.3 µM, respectively.

On to `C[C@@H]1COCCN1c1cc(N2CCCC[C@@H]2C(F)(F)F)n(C)c(=O)c1` [Example 41, 1-methyl-4-[(3R)-3-methylmorpholin-4-yl]-6-[(2R)-2-(trifluoromethyl)-1-piperidyl]pyridin-2-one], for which the IC50 in test [1] is 0.01 µM; in test [2] (setting [3]) it was 0.08 µM.

Regarding `CC(=O)N1CCN(c2cc(N3CCOC[C@H]3C)cc(=O)[nH]2)C(C(F)(F)F)C1` (stereo partly drawn) [Example 45, 6-[4-acetyl-2-(trifluoromethyl)piperazin-1-yl]-4-[(3R)-3-methylmorpholin-4-yl]-1H-pyridin-2-one], the IC50 in test [1] was 0.003 µM; in test [2] (setting [3]), 0.1 µM.

Regarding `C[C@@H]1COCCN1c1cc(N2CCN(C(=O)Cc3ccc(F)cc3)CC2C(F)(F)F)[nH]c(=O)c1` (stereo partly drawn) [Example 47, 6-[4-[2-(4-fluorophenyl)acetyl]-2-(trifluoromethyl)piperazin-1-yl]-4-[(3R)-3-methylmorpholin-4-yl]-1H-pyridin-2-one], the half-inhibitory concentration (IC50) was determined as 0.006 µM in test [1] and 0.09 µM in test [2] (setting [3]).
